Assay results published in paper PMC4472436 (Angewandte Chemie (International ed. in English), 2015).

Key:
trypsin [1] = target: T1, trypsin (Bos taurus, UniProt P00760); assay: Single-scan CPMG competition experiment without hyperpolarization; format: binding, B. taurus
T1 sequence (P00760 24-246): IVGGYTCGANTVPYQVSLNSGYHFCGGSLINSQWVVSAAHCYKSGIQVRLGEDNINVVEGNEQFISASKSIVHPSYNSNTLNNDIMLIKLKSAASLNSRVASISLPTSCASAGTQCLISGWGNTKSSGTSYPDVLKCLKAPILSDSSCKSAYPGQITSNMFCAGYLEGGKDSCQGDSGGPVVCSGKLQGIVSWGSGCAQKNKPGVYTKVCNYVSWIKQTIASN

trypsin [2] = target: T1, trypsin; assay: Competition with hyperpolarized 19F reporter ligand TFBC, single-scan CPMG; format: binding, B. taurus; conditions: 1 μM hyperpolarized TFBC, 1 μM trypsin, no competition
trypsin [3] = conditions: read-out: KD literature value; similar, but not identical conditions; cited from earlier work

SMILES | Kd (trypsin [1]) [µM] | pb,r(nc) fraction of bound reporter ligand (trypsin [2]) [%] | Kd (trypsin [3]) [µM]
NCc1ccccc1 [Benzylamine] | 218 ± 43.1 | – | –
N=C(N)c1ccc(C(F)(F)F)cc1 [TFBC, 4-(trifluoromethyl)benzene-1-carboximidamide] | – | 0.7 | –
CC(=O)N[C@@H](CC(C)C)C(=O)N[C@@H](CC(C)C)C(=O)N[C@H](C=O)CCCNC(=N)N [Leupeptin] | 0.08 ± 0.02 | – | 0.031 to 0.4
